Active and inactive are the calls of the source. No cut-off for these calls is given here.
What was measured:
[1] = biological target: RAF proto-oncogene serine/threonine-protein kinase (Homo sapiens) (UniProt P04049); assay: Inhibition of RAF1 at 1 uM
[2] = biological target: Fibroblast growth factor receptor 2 (Homo sapiens) (UniProt P21802); assay: Inhibition of FGFR2 at 1 uM
[3] = biological target: Tyrosine-protein kinase SYK (Homo sapiens) (UniProt P43405); assay: Inhibition of SYK at 1 uM
[4] = biological target: Serine/threonine-protein kinase PLK1 (Homo sapiens) (UniProt P53350); assay: Inhibition of PLK1 at 1 uM
[5] = biological target: Tyrosine-protein kinase ABL1 (Homo sapiens) (UniProt P00519); assay: Inhibition of ABL1 at 1 uM
[6] = biological target: Mitogen-activated protein kinase 1 (Homo sapiens) (UniProt P28482); assay: Inhibition of ERK2 at 1 uM
[7] = biological target: Aurora kinase B (Homo sapiens) (UniProt Q96GD4); assay: Inhibition of AURKB at 1 uM
[8] = biological target: Serine/threonine-protein kinase PAK 4 (Homo sapiens) (UniProt O96013); assay: Inhibition of PAK4 at 1 uM
[9] = biological target: Hepatocyte growth factor receptor (Homo sapiens) (UniProt P08581); assay: Inhibition of MET at 1 uM
[10] = system: Tyrosine-protein kinase ABL1 (Homo sapiens), P00519 [T315I]; assay: Inhibition of ABL1 T315I at 1 uM
[11] = biological target: Platelet-derived growth factor receptor beta (Homo sapiens) (UniProt P09619); conditions: 1 uM
Description: Inhibition of PDGFR beta at 1 uM

[12] = biological target: RAC-alpha serine/threonine-protein kinase (Homo sapiens) (UniProt P31749); assay: Inhibition of AKT1 at 1 uM
[13] = biological target: TGF-beta receptor type-1 (Homo sapiens) (UniProt P36897); assay: Inhibition of TGFBR1 at 1 uM
[14] = biological target: Cyclin-dependent kinase 2 (Homo sapiens) (UniProt P24941); assay: Inhibition of CDK2 at 1 uM
[15] = biological target: Epidermal growth factor receptor (Homo sapiens) (UniProt P00533); assay: Inhibition of EGFR at 1 uM
[16] = biological target: ALK tyrosine kinase receptor (Homo sapiens, UniProt Q9UM73); assay: Inhibition of autophosphorylation of NPM-ALK in human Karpas-299 cells; type: cell-based
[17] = biological target: Mitogen-activated protein kinase 14 (Homo sapiens) (UniProt Q16539); assay: Inhibition of p38 alpha at 1 uM
[18] = Volume of distribution in CD1 mouse at 1 mg/kg, iv; type: ADME, organism-based; parameters: dose 1 mg/kg, route intravenous; conditions: in vivo
[19] = Oral bioavailability in CD1 mouse at 10 mg/kg; type: ADME, organism-based; conditions: in vivo
[20] = Drug level in tumor of Karpas-299 cells xenografted mouse at 30 mg/kg, po administered as single dose measured after 2 hrs; type: ADME, organism-based, Neoplasm; parameters: dose 30 mg/kg, route oral; conditions: read-out: Drug uptake
[21] = Half life in CD1 mouse at 10 mg/kg, po; type: ADME, organism-based; parameters: dose 10 mg/kg, route oral; conditions: in vivo
[22] = Clearance in Sprague-Dawley rat at 1 mg/kg, iv; type: ADME, organism-based; parameters: dose 1 mg/kg, route intravenous; conditions: in vivo
[23] = Drug level in tumor of Karpas-299 cells xenografted mouse at 30 mg/kg, po administered as single dose measured after 12 hrs; type: ADME, organism-based, Neoplasm; parameters: dose 30 mg/kg, route oral; conditions: read-out: Drug uptake
[24] = Plasma concentration in Karpas-299 cells xenografted mouse at 30 mg/kg, po administered as single dose measured after 2 hrs; type: ADME, organism-based; parameters: dose 30 mg/kg, route oral
Mus musculus [25] = assay: Toxicity in mouse assessed as overt signs at 30 mg/kg, po bid; type: organism-based; parameters: dose 30 mg/kg, route oral; conditions: in vivo
[26] = Volume of distribution in Sprague-Dawley rat at 1 mg/kg, iv; type: ADME, organism-based; parameters: dose 1 mg/kg, route intravenous; conditions: in vivo
KARPAS-299 [27] = assay: Antitumor activity against human KARPAS299 cells xenografted in mouse assessed as tumor growth inhibition at 30 mg/kg, po bid; type: functional; conditions: read-out: GI
Mus musculus [28] = assay: Toxicity in mouse assessed as body weight loss at 30 mg/kg, po bid; type: organism-based; parameters: dose 30 mg/kg, route oral; conditions: in vivo
[29] = Clearance in CD1 mouse at 1 mg/kg, iv; type: ADME, organism-based; parameters: dose 1 mg/kg, route intravenous; conditions: in vivo
Mus musculus [30] = assay: Toxicity in mouse assessed as body weight loss at 55 mg/kg, po bid; type: organism-based; parameters: dose 55 mg/kg, route oral; conditions: in vivo
[31] = Cmax in CD1 mouse at 10 mg/kg, po; type: ADME, organism-based; parameters: dose 10 mg/kg, route oral; conditions: in vivo
Mus musculus [32] = assay: Inhibition of NPM-ALK autophosphorylation in Karpas-299 cells xenografted mouse at 30 mg/kg, po administered as single dose measured after 6 hrs; type: functional, organism-based; parameters: dose 30 mg/kg
[33] = Half life in Sprague-Dawley rat at 1 mg/kg, iv; type: ADME, organism-based; parameters: dose 1 mg/kg, route intravenous; conditions: in vivo
KARPAS-299 [34] = assay: Antitumor activity against human KARPAS299 cells xenografted in mouse assessed as tumor growth inhibition at 55 mg/kg, po bid; type: functional; conditions: read-out: GI
[35] = AUC (0 to t) in Sprague-Dawley rat at 1 mg/kg, iv; type: ADME, organism-based; parameters: dose 1 mg/kg, route intravenous; conditions: plasma
[36] = Half life in CD1 mouse at 1 mg/kg, iv; type: ADME, organism-based; parameters: dose 1 mg/kg, route intravenous; conditions: in vivo
[37] = Plasma concentration in Karpas-299 cells xenografted mouse at 30 mg/kg, po administered as single dose measured after 12 hrs; type: ADME, organism-based; parameters: dose 30 mg/kg, route oral
[38] = AUC (0 to t) in CD1 mouse at 10 mg/kg, po; type: ADME, organism-based; parameters: dose 10 mg/kg, route oral; conditions: plasma
[39] = Tmax in CD1 mouse at 10 mg/kg, po; type: ADME, organism-based; parameters: dose 10 mg/kg, route oral; conditions: in vivo
[40] = Tmax in Sprague-Dawley rat at 5 mg/kg, po; type: ADME, organism-based; parameters: dose 5 mg/kg, route oral; conditions: in vivo
[41] = AUC (0 to t) in Sprague-Dawley rat at 5 mg/kg, po; type: ADME, organism-based; parameters: dose 5 mg/kg, route oral; conditions: plasma
[42] = Plasma concentration in Karpas-299 cells xenografted mouse at 30 mg/kg, po administered as single dose measured after 6 hrs; type: ADME, organism-based; parameters: dose 30 mg/kg, route oral
Mus musculus [43] = assay: Toxicity in mouse assessed as overt signs at 55 mg/kg, po bid; type: organism-based; parameters: dose 55 mg/kg, route oral; conditions: in vivo
Mus musculus [44] = assay: Inhibition of NPM-ALK autophosphorylation in Karpas-299 cells xenografted mouse at 30 mg/kg, po administered as single dose measured after 2 hrs; type: functional; conditions: KARPAS-299, 2 h
[45] = Cmax in Sprague-Dawley rat at 5 mg/kg, po; type: ADME, organism-based; parameters: dose 5 mg/kg, route oral; conditions: in vivo
[46] = AUC (0 to t) in CD1 mouse at 1 mg/kg, iv; type: ADME, organism-based; parameters: dose 1 mg/kg, route intravenous; conditions: plasma
[47] = Oral bioavailability in Sprague-Dawley rat at 5 mg/kg; type: ADME, organism-based; conditions: in vivo
[48] = Drug level in tumor of Karpas-299 cells xenografted mouse at 30 mg/kg, po administered as single dose measured after 6 hrs; type: ADME, organism-based, Neoplasm; parameters: dose 30 mg/kg, route oral; conditions: read-out: Drug uptake

ALK tyrosine kinase receptor, sequence (Q9UM73 19-1620 limits assumed): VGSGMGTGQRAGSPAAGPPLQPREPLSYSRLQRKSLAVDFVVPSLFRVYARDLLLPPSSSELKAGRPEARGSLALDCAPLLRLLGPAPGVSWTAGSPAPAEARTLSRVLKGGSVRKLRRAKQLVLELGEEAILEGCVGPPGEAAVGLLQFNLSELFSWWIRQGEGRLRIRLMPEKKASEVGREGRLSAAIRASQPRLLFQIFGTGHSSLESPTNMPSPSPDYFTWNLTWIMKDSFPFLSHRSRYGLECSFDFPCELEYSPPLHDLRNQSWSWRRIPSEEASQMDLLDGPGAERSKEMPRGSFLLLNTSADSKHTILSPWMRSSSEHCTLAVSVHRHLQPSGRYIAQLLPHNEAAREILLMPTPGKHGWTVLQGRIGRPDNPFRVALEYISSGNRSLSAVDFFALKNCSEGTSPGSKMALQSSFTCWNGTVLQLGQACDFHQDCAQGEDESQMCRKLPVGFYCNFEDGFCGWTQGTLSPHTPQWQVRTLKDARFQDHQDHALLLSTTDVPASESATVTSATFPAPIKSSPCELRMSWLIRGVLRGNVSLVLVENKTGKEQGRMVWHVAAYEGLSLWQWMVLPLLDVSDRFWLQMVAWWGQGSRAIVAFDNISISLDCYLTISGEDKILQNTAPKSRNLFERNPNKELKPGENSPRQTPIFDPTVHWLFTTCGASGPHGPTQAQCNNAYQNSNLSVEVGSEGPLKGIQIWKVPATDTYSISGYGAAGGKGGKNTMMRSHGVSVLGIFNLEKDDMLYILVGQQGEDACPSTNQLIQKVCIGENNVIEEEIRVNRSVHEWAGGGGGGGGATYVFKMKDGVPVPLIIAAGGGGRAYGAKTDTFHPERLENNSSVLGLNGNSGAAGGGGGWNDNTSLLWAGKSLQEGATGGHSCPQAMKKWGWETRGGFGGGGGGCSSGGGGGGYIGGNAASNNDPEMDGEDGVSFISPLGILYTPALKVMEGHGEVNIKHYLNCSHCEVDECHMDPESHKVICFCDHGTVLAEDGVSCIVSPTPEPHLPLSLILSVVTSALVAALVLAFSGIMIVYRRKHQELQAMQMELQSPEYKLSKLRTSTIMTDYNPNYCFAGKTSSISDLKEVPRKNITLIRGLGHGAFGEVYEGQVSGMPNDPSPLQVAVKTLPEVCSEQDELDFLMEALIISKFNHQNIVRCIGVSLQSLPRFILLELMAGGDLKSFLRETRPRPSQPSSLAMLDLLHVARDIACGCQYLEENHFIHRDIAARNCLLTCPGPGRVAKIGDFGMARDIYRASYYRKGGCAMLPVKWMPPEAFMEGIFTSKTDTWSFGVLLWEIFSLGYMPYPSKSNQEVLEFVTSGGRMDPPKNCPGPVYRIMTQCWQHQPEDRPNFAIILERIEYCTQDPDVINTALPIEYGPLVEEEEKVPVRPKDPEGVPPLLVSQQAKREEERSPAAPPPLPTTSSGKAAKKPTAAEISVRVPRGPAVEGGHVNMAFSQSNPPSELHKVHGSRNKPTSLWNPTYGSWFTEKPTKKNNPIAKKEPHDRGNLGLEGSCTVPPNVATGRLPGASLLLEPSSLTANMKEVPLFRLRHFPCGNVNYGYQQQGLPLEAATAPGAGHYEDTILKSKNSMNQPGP
Mitogen-activated protein kinase 1 (Homo sapiens), sequence (P28482 whole entry): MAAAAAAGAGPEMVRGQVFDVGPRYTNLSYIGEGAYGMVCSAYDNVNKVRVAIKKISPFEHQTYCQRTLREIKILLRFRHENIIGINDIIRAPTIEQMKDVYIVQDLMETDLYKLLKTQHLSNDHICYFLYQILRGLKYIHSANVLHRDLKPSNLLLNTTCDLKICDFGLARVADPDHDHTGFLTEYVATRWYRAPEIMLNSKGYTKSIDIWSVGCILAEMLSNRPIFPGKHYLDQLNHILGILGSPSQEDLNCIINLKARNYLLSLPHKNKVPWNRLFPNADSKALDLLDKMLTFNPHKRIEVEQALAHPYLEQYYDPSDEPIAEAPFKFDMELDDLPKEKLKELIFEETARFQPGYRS
Epidermal growth factor receptor (Homo sapiens), sequence (P00533 whole entry): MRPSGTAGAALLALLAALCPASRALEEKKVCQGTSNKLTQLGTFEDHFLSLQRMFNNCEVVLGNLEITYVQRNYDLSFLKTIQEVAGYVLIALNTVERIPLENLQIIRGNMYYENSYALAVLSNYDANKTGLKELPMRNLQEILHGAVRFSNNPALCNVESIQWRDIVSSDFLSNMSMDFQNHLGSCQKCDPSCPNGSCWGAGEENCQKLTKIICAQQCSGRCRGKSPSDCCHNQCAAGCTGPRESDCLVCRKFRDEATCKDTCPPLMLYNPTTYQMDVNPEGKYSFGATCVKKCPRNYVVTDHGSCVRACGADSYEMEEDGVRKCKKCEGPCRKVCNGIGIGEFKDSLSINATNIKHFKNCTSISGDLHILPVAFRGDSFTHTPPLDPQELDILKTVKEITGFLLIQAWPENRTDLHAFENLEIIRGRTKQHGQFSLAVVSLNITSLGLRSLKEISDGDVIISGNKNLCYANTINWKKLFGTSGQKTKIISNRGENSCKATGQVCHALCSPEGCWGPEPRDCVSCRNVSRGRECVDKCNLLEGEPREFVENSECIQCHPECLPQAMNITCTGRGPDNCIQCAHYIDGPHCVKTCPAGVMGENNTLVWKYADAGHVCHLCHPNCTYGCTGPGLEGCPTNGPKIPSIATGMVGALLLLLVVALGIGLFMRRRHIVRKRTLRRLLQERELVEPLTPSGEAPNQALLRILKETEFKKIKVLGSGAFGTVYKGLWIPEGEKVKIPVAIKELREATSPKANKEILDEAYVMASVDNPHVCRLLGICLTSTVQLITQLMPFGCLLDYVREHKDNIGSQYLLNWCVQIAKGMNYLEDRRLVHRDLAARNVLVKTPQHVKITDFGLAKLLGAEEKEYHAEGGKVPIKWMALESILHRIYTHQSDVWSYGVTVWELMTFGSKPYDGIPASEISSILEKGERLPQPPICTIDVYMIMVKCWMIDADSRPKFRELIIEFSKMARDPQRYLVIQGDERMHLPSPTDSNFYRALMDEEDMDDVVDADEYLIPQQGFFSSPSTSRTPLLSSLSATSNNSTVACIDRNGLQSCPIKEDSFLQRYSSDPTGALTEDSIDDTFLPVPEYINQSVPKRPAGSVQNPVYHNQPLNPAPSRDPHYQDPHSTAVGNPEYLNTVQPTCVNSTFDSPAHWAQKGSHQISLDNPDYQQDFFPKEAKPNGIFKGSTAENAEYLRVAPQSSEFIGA
Hepatocyte growth factor receptor (Homo sapiens), sequence (P08581 whole entry): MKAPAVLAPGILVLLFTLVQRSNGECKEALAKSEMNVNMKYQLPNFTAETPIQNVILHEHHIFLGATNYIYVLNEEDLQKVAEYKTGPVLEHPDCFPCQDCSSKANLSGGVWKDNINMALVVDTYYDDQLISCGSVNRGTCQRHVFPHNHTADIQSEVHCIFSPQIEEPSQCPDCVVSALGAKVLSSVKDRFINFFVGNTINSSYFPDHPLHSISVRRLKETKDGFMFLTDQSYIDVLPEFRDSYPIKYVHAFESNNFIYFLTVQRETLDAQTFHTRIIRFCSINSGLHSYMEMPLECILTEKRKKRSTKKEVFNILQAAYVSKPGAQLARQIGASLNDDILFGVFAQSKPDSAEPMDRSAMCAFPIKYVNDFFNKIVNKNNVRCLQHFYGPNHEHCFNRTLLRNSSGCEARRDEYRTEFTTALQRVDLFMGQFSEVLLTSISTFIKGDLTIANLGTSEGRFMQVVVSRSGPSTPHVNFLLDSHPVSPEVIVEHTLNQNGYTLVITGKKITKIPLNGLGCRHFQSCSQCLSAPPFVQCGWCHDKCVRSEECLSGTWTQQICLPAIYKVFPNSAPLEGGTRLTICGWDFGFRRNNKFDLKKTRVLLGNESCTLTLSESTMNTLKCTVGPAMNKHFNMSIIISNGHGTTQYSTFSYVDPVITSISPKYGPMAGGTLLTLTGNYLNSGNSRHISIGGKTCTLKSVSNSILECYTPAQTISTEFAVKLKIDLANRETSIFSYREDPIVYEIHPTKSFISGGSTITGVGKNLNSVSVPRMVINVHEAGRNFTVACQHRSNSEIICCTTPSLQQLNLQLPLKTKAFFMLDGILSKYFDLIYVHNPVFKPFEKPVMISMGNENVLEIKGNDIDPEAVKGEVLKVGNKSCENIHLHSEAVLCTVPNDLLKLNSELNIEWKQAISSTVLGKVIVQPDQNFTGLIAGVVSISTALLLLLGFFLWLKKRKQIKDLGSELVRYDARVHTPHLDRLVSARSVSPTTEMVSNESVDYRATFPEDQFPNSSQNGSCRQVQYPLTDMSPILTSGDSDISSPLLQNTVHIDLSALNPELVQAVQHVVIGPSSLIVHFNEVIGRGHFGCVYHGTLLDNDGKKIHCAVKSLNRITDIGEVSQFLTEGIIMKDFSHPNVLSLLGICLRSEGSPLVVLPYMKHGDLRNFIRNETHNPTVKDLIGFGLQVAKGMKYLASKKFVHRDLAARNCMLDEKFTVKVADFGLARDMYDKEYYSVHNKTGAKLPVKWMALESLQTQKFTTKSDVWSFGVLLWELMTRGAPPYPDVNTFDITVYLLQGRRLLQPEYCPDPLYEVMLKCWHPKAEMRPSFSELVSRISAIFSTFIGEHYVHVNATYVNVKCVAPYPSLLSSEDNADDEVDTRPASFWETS
RAC-alpha serine/threonine-protein kinase (Homo sapiens), sequence (P31749 whole entry): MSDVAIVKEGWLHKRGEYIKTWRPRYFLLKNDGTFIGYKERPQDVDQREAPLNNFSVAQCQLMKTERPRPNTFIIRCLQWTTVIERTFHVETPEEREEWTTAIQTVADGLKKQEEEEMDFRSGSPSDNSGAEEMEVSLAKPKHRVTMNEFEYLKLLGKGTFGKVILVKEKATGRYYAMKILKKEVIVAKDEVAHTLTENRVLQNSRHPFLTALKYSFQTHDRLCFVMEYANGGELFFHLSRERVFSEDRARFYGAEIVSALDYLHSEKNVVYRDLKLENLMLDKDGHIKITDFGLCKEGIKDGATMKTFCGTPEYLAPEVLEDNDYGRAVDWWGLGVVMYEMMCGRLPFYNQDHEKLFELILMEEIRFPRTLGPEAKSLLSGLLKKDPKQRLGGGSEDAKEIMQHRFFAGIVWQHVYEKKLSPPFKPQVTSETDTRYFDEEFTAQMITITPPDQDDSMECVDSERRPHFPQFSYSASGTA

SMILES: COCCN1CCc2cc(Nc3ncc(Cl)c(N[C@@H]4CCCC[C@H]4N(C)S(C)(=O)=O)n3)c(OC)cc2CC1
- inhibition [1]: < 65%
- inhibition [2]: 99%
- inhibition [3]: < 65%
- inhibition [4]: 96%
- inhibition [5]: < 65%
- inhibition [6]: < 65%
- inhibition [7]: < 65%
- inhibition [8]: < 65%
- inhibition [9]: < 65%
- inhibition [10]: < 65%
- inhibition [11]: 100%
- inhibition [12]: < 65%
- inhibition [13]: < 65%
- inhibition [14]: < 65%
- inhibition [15]: 89%
- IC50 [16]: 15 nM
- inhibition [17]: < 65%

SMILES: COCCN1CCc2cc(Nc3ncc(Cl)c(N[C@@H]4CCCC[C@H]4NS(C)(=O)=O)n3)c(OC)cc2CC1
- inhibition [1]: < 65%
- inhibition [2]: < 65%
- Vd [18]: 0.4 L/kg
- bioavailability [19]: 28%
- concentration at 2 h [20]: 695 ng/g
- half-life [21]: 1 h
- clearance [22]: 217 mL/min/kg
- concentration at 12 h [23]: 279 ng/g
- concentration at 2 h [24]: 2740 ng/mL
- Activity (Mus musculus [25]): Non-toxic
- Vd [26]: 10.1 L/kg
- inhibition [3]: < 65%
- inhibition in vivo at 30 mg/kg (KARPAS-299 [27]): 45%
- inhibition [4]: 94%
- inhibition [5]: < 65%
- Activity (Mus musculus [28]): Non-toxic
- clearance [29]: 5.6 mL/min/kg
- Activity (Mus musculus [30]): Non-toxic
- Cmax [31]: 2880 ng/mL
- inhibition [6]: < 65%
- inhibition [7]: < 65%
- inhibition (Mus musculus [32]): inactive
- half-life [33]: 0.6 h
- inhibition in vivo at 55 mg/kg (KARPAS-299 [34]): 54%
- inhibition [8]: < 65%
- inhibition [9]: < 65%
- inhibition [10]: < 65%
- inhibition [11]: < 65%
- AUC(0-t) [35]: 72 ng·h/mL
- half-life [36]: 0.9 h
- concentration at 12 h [37]: 2650 ng/mL
- AUC(0-t) [38]: 8200 ng·h/mL
- Tmax [39]: 1 h
- Tmax [40]: 1.8 h
- inhibition [12]: < 65%
- AUC(0-t) [41]: 110 ng·h/mL
- inhibition [13]: < 65%
- inhibition [14]: < 65%
- concentration at 6 h [42]: 3680 ng/mL
- inhibition [15]: < 65%
- Activity (Mus musculus [43]): Non-toxic
- inhibition in vivo at 30 mg/kg (Mus musculus [44]): 75%
- Cmax [45]: 23 ng/mL
- IC50 [16]: 65 nM
- AUC(0-t) [46]: 2930 ng·h/mL
- bioavailability [47]: 24%
- concentration at 6 h [48]: 602 ng/g
- inhibition [17]: < 65%
